According to patent publication US4904672A, “Derivatives of 3-hydroxyazabenzo[b]thiophene useful as 5-lipoxygenase inhibitors” (Merck & Co., Inc., priority 1988, dated 1990):

Test system: Brewer's yeast-induced hyperalgesia (pain response)
Experiment: Brewer's Yeast Hyperalgesia Assay in the rat
Assay type: in vivo, rat (female Sprague-Dawley)
Conditions: 3 mg/kg p.o.
Description: In this assay, which is sensitive to inhibition by lipoxygenase and cyclooxygenase inhibitors, compounds of formula I reduced the pain response induced by Brewer's yeast (Table 1a).
Groups of 10 female Sprague-Dawley rats, weighing 35-50 grams (Charles River Breeding Laboratories), were fasted overnight prior to testing. For each animal, 0.1 ml of the edema-inducing Brewer's yeast suspension (5% homogenate in physiological saline) was injected into the right hindpaw. Pain threshold was measured by applying pressure to the plantar surface of the hindpaw by means of a compressed air driven piston with a 2 mm. tip. Testing was carried out 3, 4, and 5 hours after the yeast injection. Compounds, prepared as homogenates in either 1% methylcellulose or aqueous vehicle, were administered orally 60 minutes before testing. A group of vehicle treated control animals was included in each experiment. Squeak pressure thresholds were measured and recorded for the compound and vehicle-treated groups of rats 3, 4, and 5 hours after administration of the Brewer's yeast (60 minutes after compound treatment). The estimation of analgesia was as follows: 1. the mean response pressure for the daily vehicle control group in the normal and inflammed foot was calculated; 2. for each compound treatment group, the number of animals with response pressures equal to or greater than 25 mm Hg was noted. These animals were considered to be analgesic.

CC(=O)Oc1c(-c2ccc(F)cc2)sc2ncccc12 [R=(CO)CH3, X1=H, X2=p-F, 7-aza-3-acetyloxy-2-(4-fluorophenyl)-benzo[b]thiophene]
% Inhibition (yeast hyperalgesia): 70%

COc1ccc(-c2sc3ncccc3c2OC(C)=O)cc1 [R=(CO)CH3, X1=H, X2=p-OCH3]
% Inhibition (yeast hyperalgesia): 10%
